# Where a name gives a salt, the structure may show the parent alone.
# Key:
# [1] = Feasibility pK rat study of aqueous micro-suspensions (LAI feasibility); type: in vivo; details: IM, 50 mg/kg; for long-acting release profile: 125 mg/mL micro-suspension pH 5
# Description: For this study, aqueous micro-suspensions of Selexipag, {4-[(5,6-diphenylpyrazin-2-yl)(propan-2-yl)amino]butoxy}acetic acid and calcium; {4-[(5,6-diphenylpyrazin-2-yl)(propan-2-yl)amino]butoxy}acetate were prepared. An overview of the design of the study can be found in Table 1.
# Release profiles and mean AUC of the different formulations are depicted in FIG. 1.
# [2] = Assay/purity of gamma-irradiated drug substance (UPLC); type: physicochemical
# Description: To evaluate if gamma-irradiation could be used to produce sterile product, different irradiation grades were tested on calcium; {4-[(5,6-diphenylpyrazin-2-yl)(propan-2-yl)amino]butoxy}acetate. In this study, calcium; {4-[(5,6-diphenylpyrazin-2-yl)(propan-2-yl)amino]butoxy}acetate (“COMPOUND”) was irradiated with three different grades (i.e. 5, 25 and 40 kGy). Each irradiation grade was applied on two different COMPOUND vials. One of the two vials for each grade was flushed with nitrogen for 10 seconds. One reference vial containing non-irradiated COMPOUND was included in the assay/purity analysis. All samples were analyzed immediately after irradiation (Table 15) and re-analyzed after 3 months of storage at room temperature.
# A second study was conducted on calcium: {4-[(5,6-diphenylpyrazin-2-yl)(propan-2-yl)amino]butoxy}acetate where three different irradiation grades were applied (i.e 5, 25 and 40 kGy).
# Analytical Method used: The assay and the impurities of calcium salt of selexipag metabolite before (ref) and after gamma irradiation were analysed using reversed phase chromatography. Sample preparation was done by weighing 50 mg of sample in a 500 mL flask. Approximately 100 mL pH7 phosphate buffer:ACN (50:50) was added whereafter the flask was shaken mechanically for at least 30 minutes until complete dissolution. Dilute to volume with pH7 phosphate buffer:ACN (50:50). The resulting solution was diluted 5× by pipetting 5 mL into a 25 mL flask and diluting with the same dilution solvent. The reference solution is made following the same sample preparation, but using calcium salt of selexipag metabolite (“API”).
# Analysis was performed using a Waters UPLC H-Class equipped with DAD detector, column manager and auto-sampler. Separation was done on a Acquity UPLC BEH C18 (2.1×150 mm, 1.7 μm) analytical column using a column temperature of 60° C. DAD detector was set on 230 nm. A 10 mM NH4Ac:ACN:MeOH (950:38:12) solution was used as mobile phase A. A 10 mM NH4Ac:ACN:MeOH (50:710:240) solution was used as mobile phase B. A linear gradient program of 26 minutes was applied starting in which the mobile phase B increases from 5% to 100% in 20 minutes. Hereafter the concentration of mobile phase B was brought back to 5% in 1 minute followed by an equilibration time of 5 minutes. The applied flow rate is 0.30 mL/min. An injection volume of 7 μL was used for the analysis. The assay value of the sample is calculated according following formula:
# %=[API peak responsesample×concref×purityref×100%]/[peak responseref×concsample]
# The concentration of an impurity is calculated according following formula:
# %=[Impurity peak responsesample×concref×purityref×100%]/[peak responseref×concsample]
# [3] = Assay/purity of gamma-irradiated drug product (UPLC); type: physicochemical; details: gamma-irradiation 40 and 60 kGy
# Source text: For this reason, both gamma-irradiation and autoclavation (steam sterilization) of the final drug product need to be investigated. To evaluate the chemical stability of the final drug product during gamma-irradiation, 2 different concepts with calcium; {4-[(5,6-diphenylpyrazin-2-yl)(propan-2-yl)amino]butoxy}acetate having a particle size Dv50 of 8 micrometer were subjected to an irradiation grade of 40 kGy and 60 kGy.
# Analytical Method used: The assay and the impurities of the gamma irradiated and non-gamma irradiated (ref) calcium salt of selexipag metabolite suspension (formulation) were analysed using reversed phase chromatography. Sample preparation was done by weighing 0.5 mL suspension in a 500 mL flask. Approximately 200 mL pH7 phosphate buffer:ACN (50:50) was added whereafter the flask was shaken mechanically for at least 30 minutes until complete dissolution. Dilute to volume with pH7 phosphate buffer:ACN (50:50). The resulting solution was diluted 5× by pipetting 5 mL into a 25 mL flask and diluting with the same dilution solvent. […]
# Analysis was performed using a Waters UPLC H-Class equipped with DAD detector, column manager and auto-sampler. […] The assay value of the sample is calculated according following formula: […]
# The concentration of an impurity is calculated according following formula: […]
# [4] = Assay/purity of drug product after autoclavation (steam sterilization); type: physicochemical
# Description: In parallel with gamma-irradiation of the final drug product (formulated calcium; {4-[(5,6-diphenylpyrazin-2-yl)(propan-2-yl)amino]butoxy}acetate having a particle size Dv50 of 8 micrometer), autoclavation (steam sterilization) was evaluated as well.
# Not only the effect upon chemical stability, but upon resuspendability was evaluated as well for the process of autoclavation (steam sterilization). The tested samples of experiment 142 were evaluated for resuspendability right after autoclavation (T0) and after 14 days of storage at 5° C. Time needed for resuspendability was acceptable at both timepoints.
# [5] = system: patients with pulmonary arterial hypertension; details: phase III clinical trial, versus placebo; cited from earlier work
# [6] = 5 kGy, 3 months at room temperature
# [7] = 5 kGy, 3 months at room temperature, flushed with N2
# [8] = 25 kGy, 3 months at room temperature
# [9] = 25 kGy, 3 months at room temperature, flushed with N2
# [10] = 40 kGy, 3 months at room temperature
# [11] = 40 kGy, 3 months at room temperature, flushed with N2
# [12] = Reference (non-irradiated), 3 months at room temperature
structure (smiles),measurement,setting,value
"CC(C)N(CCCCOCC(=O)O)c1cnc(-c2ccccc2)c(-c2ccccc2)n1 [ACT-333679, 2-(4-((5,6-diphenylpyrazin-2-yl)(isopropyl)amino)butoxy)acetic acid, reference compound]",long-acting release profile,[1],did not demonstrate a long-acting release profile
"CC(C)N(CCCCOCC(=O)O)c1cnc(-c2ccccc2)c(-c2ccccc2)n1 [Ca-salt of ACT-333679, calcium; {4-[(5,6-diphenylpyrazin-2-yl)(propan-2-yl)amino]butoxy}acetate]",AUC increases up until,[1]; 125 mg/mL micro-suspension,≤ 720 h
same,long-acting release profile up to,[1]; 125 mg/mL micro-suspension,up to 336 hours
same,plasma concentrations,"[1]; 125 mg/mL micro-suspension, FIG. 1",significant lower plasma concentrations compared to both other groups
same,"Assay, % COMPOUND",[2]; [6],94.0%
same,"Impurity, % RRT 1.16*",[2]; [6],<0.05%
same,"Impurity, % RRT 1.32*",[2]; [6],0.06%
same,"Impurity, % RRT 1.34*",[2]; [6],<0.05%
same,"Assay, % COMPOUND",[2]; [7],94.1%
same,"Impurity, % RRT 1.16*",[2]; [7],<0.05%
same,"Impurity, % RRT 1.32*",[2]; [7],0.06%
same,"Impurity, % RRT 1.34*",[2]; [7],<0.05%
same,"Assay, % COMPOUND","[2]; 5 kGy, T0",95.3%
same,"Impurity, % RRT 1.16*","[2]; 5 kGy, T0",0.05%
same,"Impurity, % RRT 1.32*","[2]; 5 kGy, T0",<0.05%
same,"Impurity, % RRT 1.34*","[2]; 5 kGy, T0",0.09%
same,"Assay, % COMPOUND","[2]; 5 kGy, T0, flushed with N2",94.6%
same,"Impurity, % RRT 1.16*","[2]; 5 kGy, T0, flushed with N2",0.05%
same,"Impurity, % RRT 1.32*","[2]; 5 kGy, T0, flushed with N2",<0.05%
same,"Impurity, % RRT 1.34*","[2]; 5 kGy, T0, flushed with N2",0.06%
same,"Assay, % COMPOUND",[2]; [8],94.2%
same,"Impurity, % RRT 1.16*",[2]; [8],0.07%
same,"Impurity, % RRT 1.32*",[2]; [8],0.12%
same,"Impurity, % RRT 1.34*",[2]; [8],0.06%
same,"Assay, % COMPOUND",[2]; [9],93.6%
same,"Impurity, % RRT 1.16*",[2]; [9],<0.05%
same,"Impurity, % RRT 1.32*",[2]; [9],0.05%
same,"Impurity, % RRT 1.34*",[2]; [9],0.08%
same,"Assay, % COMPOUND","[2]; 25 kGy, T0",95.1%
same,"Impurity, % RRT 1.16*","[2]; 25 kGy, T0",0.10%
same,"Impurity, % RRT 1.32*","[2]; 25 kGy, T0",0.11%
same,"Impurity, % RRT 1.34*","[2]; 25 kGy, T0",0.06%
same,"Assay, % COMPOUND","[2]; 25 kGy, T0, flushed with N2",95.6%
same,"Impurity, % RRT 1.16*","[2]; 25 kGy, T0, flushed with N2",<0.05%
same,"Impurity, % RRT 1.32*","[2]; 25 kGy, T0, flushed with N2",0.13%
same,"Impurity, % RRT 1.34*","[2]; 25 kGy, T0, flushed with N2",0.09%
same,"Assay, % COMPOUND",[2]; [10],94.3%
same,"Impurity, % RRT 1.16*",[2]; [10],0.08%
same,"Impurity, % RRT 1.32*",[2]; [10],0.15%
same,"Impurity, % RRT 1.34*",[2]; [10],0.10%
same,"Assay, % COMPOUND",[2]; [11],92.9%
same,"Impurity, % RRT 1.16*",[2]; [11],0.08%
same,"Impurity, % RRT 1.32*",[2]; [11],0.14%
same,"Impurity, % RRT 1.34*",[2]; [11],0.10%
same,"Assay, % COMPOUND","[2]; 40 kGy, T0",94.3%
same,"Impurity, % RRT 1.16*","[2]; 40 kGy, T0",0.13%
same,"Impurity, % RRT 1.32*","[2]; 40 kGy, T0",0.14%
same,"Impurity, % RRT 1.34*","[2]; 40 kGy, T0",0.06%
same,"Assay, % COMPOUND","[2]; 40 kGy, T0, flushed with N2",94.5%
same,"Impurity, % RRT 1.16*","[2]; 40 kGy, T0, flushed with N2",0.12%
same,"Impurity, % RRT 1.32*","[2]; 40 kGy, T0, flushed with N2",0.15%
same,"Impurity, % RRT 1.34*","[2]; 40 kGy, T0, flushed with N2",0.07%
same,"Assay, % COMPOUND",[2]; [12],94.4%
same,"Impurity, % RRT 1.16*",[2]; [12],<0.05%
same,"Impurity, % RRT 1.32*",[2]; [12],<0.05%
same,"Impurity, % RRT 1.34*",[2]; [12],<0.05%
same,"Assay, % COMPOUND","[2]; Reference (non-irradiated), T0",95.3%
same,"Impurity, % RRT 1.16*","[2]; Reference (non-irradiated), T0",<0.05%
same,"Impurity, % RRT 1.32*","[2]; Reference (non-irradiated), T0",<0.05%
same,"Impurity, % RRT 1.34*","[2]; Reference (non-irradiated), T0",0.09%
same,chemical stability,"[2]; drug substance, gamma-irradiation 5, 25, 40 kGy",acceptable
same,"Assay, % COMPOUND","[2]; second study, 5 kGy",104.4%
same,"Impurity, % RRT 1.15*","[2]; second study, 5 kGy",<0.05%
same,"Impurity, % RRT 1.16*","[2]; second study, 5 kGy",<0.05%
same,"Impurity, % RRT 1.32*","[2]; second study, 5 kGy",<0.05%
same,"Assay, % COMPOUND","[2]; second study, 25 kGy",104.3%
same,"Impurity, % RRT 1.15*","[2]; second study, 25 kGy",0.06%
same,"Impurity, % RRT 1.16*","[2]; second study, 25 kGy",0.09%
same,"Impurity, % RRT 1.32*","[2]; second study, 25 kGy",0.07%
same,"Assay, % COMPOUND","[2]; second study, 40 kGy",103.7%
same,"Impurity, % RRT 1.15*","[2]; second study, 40 kGy",0.06%
same,"Impurity, % RRT 1.16*","[2]; second study, 40 kGy",0.12%
same,"Impurity, % RRT 1.32*","[2]; second study, 40 kGy",0.10%
same,chemical stability in the drug product,[3],acceptable
same,chemical stability in the drug product,[4],chemically stable
"CC(C)N(CCCCOCC(=O)NS(C)(=O)=O)c1cnc(-c2ccccc2)c(-c2ccccc2)n1 [Selexipag, 2-{4-[(5,6-diphenylpyrazin-2-yl)(propan-2-yl)amino]butoxy}-N-(methanesulfonyl)acetamide, reference compound]",long-acting release profile,[1],did not demonstrate a long-acting release profile
same,risk of the primary composite end point of death or a complication related to pulmonary arterial hypertension,[5],significantly lower
